Test system: H9^DF hESCs
Assay: Bioluminescent imaging of transplanted hESC survival under immunosuppressive drug treatment
Format: in vivo, BALB/c mice
Settings: for BLI signal by post-transplant day 10: single drug treatment groups
Experimental: H1, H9 and H9DF hESCs were initially maintained on top of murine embryonic fibroblasts feeder (MEF) layers as detailed in SI Methods. To prevent contamination of the transplanted hESC population with MEF, hESC colonies were separated from MEF by incubation with dispase (Invitrogen) and subcultured on feeder-free matrigel (hESC qualified, BD Biosciences) coated 6-well plates in mTeSR™ 1 maintenance medium (Stem Cell Technologies) for 2 to 5 passages. MHC expression on hESCs was evaluated by flow cytometry as detailed in SI Methods. Shortly prior to transplantation, hESCs were trypsinated, and resuspended in sterile PBS at 1×10^6 cells per 20 μl. hESC transplantation was performed by direct injection into gastrocnemius muscles of recipient mice (using a 29.5 gauge insulin syringe.
BLI was performed using the Xenogen In Vivo Imaging System as previously described (38). Briefly, mice were anesthetized with isoflurane and D-luciferin was administered intraperitoneally at a dose of 375 mg/kg body weight. At the time of imaging, animals were placed in a light-tight chamber, and photons emitted from luciferase expressing hESCs transplanted into the animals were collected with integration times of 5 sec-5 min, depending on the intensity of the bioluminescence emission. The same mice were scanned repetitively as per the study design. BLI signal was quantified in units of photons per second (Total flux) and presented as Log[photons/sec].

| Structure (SMILES) | improvement of hESC survival by addition of MMF (over single TAC and/or SIR treatment) | BLI signal by post-transplant day 10 | BLI signal at day 7 (monotherapy, 1×10^6 H9^DF hESCs in gastrocnemius muscle, NT 4.98±0.04, P<0.05) |
| --- | --- | --- | --- |
| COc1c(C)c2c(c(O)c1C/C=C(\C)CCC(=O)OCCN1CCOCC1)C(=O)OC2 [MMF, mycophenolate mofetil] | did not result in significant improvement | decreased to background levels |  |
| CO[C@H]1C[C@@H]2CC[C@@H](C)[C@@](O)(O2)C(=O)C(=O)N2CCCC[C@H]2C(=O)O[C@H]([C@H](C)C[C@@H]2CC[C@@H](O)[C@H](OC)C2)CC(=O)[C@H](C)/C=C(\C)[C@@H](O)[C@@H](OC)C(=O)[C@H](C)C[C@H](C)/C=C/C=C/C=C/1C [SIR, sirolimus] |  |  | 6.4±0.29 Log^[photons/sec] |
| C=CC[C@@H]1/C=C(\C)C[C@H](C)C[C@H](OC)[C@H]2O[C@@](O)(C(=O)C(=O)N3CCCC[C@H]3C(=O)O[C@H](/C(C)=C/[C@@H]3CC[C@@H](O)[C@H](OC)C3)[C@H](C)[C@@H](O)CC1=O)[C@H](C)C[C@@H]2OC [TAC, Tacrolimus] |  | decreased to background levels |  |
